Where two headings read alike, the source gives them in different places.
Molecular target: T1, GluN1/GluN2B NMDA receptors (UniProt P35439+Q01097)
T1 construct: expressed in transfected cells; host or cells: Xenopus laevis oocytes (nuclear cDNA injection)
Assay: TEVC electrophysiology on Xenopus oocytes expressing wt GluN1/GluN2B NMDARs
Format: cell-based, rat GluN1, mouse GluN2B
Conditions: for Relative current for theoretical DRC 9% trans / Relative current for theoretical DRC 18% trans / remaining activity at 0.03 µM / remaining activity at 0.1 µM / remaining activity at 0.3 µM / remaining activity at 2 µM: GluN1/GluN2B wt; for Relative current for theoretical DRC 9% trans: theoretical for 350 nm PSS; for Relative current for theoretical DRC 18% trans: theoretical for 365 nm PSS; for remaining activity at 0.03 µM / remaining activity at 0.1 µM / remaining activity at 0.3 µM / remaining activity at 2 µM: Sup. Fig. 3F, read-out: Relative current (IOpto/I0); for remaining activity at 0.03 µM: [OptoNAM-3] 0.03 µM; for remaining activity at 0.1 µM: [OptoNAM-3] 0.1 µM
Excerpt: The activity of OptoNAM-3 was functionally monitored by electrophysiology on Xenopus oocytes (see Methods). To assess the light-dependent effect, we tested the activities of the dark PSS (mostly trans) and the UV PSS (mostly cis, see above) separately. For each concentration, we prepared a solution divided into two samples: one in which the compound was kept in the dark for the duration of the experiment (dark PSS state); and the other that was preilluminated with either 350 or 365 nm light (350 or 365 nm PSS) and then kept away from the light for the duration of the experiment in order to avoid photoisomerization of the compounds by ambient light (see Methods). […] We generated dose–response curves of OptoNAM-3 dark and UV PSS on wild-type (wt) GluN1/GluN2B NMDA receptors (Figure 3A) in the presence of saturating concentrations of agonists (100 μM glutamate and glycine).
We used cDNA coding for rat GluN1–1a (named GluN1 herein) (GenBank: U08261.1), rat GluN2A (GenBank: D13211.1), mouse GluN2B (GenBank: D10651.2), rat GluA1 flop (GenBank: M36418.2), and rat Myc-GluA2(Q)-flip (GenBank: AF164344.1) cloned into pcDNA3-based expression plasmids. GluK2 (GenBank: Z11548.1) corresponds to the fully RNA-edited version.[80] The GluN2B-ΔNTD construct is from ref[45] and GluN2B–N615K is from ref[81]. Single mutants GluN2B-Q110G and GluN1-L135H were from ref[19]. The GluA2 cDNA contains a Myc tag ([…]) fused between the signal peptide and the N-terminus sequences, and the GluA2 subunit is […] for its Q/R/N site (GluA2(Q)) to allow permeation of homomeric GluA2 receptors.[2] cDNAs coding for rat GluN2C (GenBank: M91563.1) and GluN2D subunits (GenBank: L31611.1) were in prK5 plasmids.
Oocytes from Xenopus laevis were used for heterologous expression of recombinant NMDA receptors studied using a two-electrode voltage clamp (TEVC). Female Xenopus laevis were housed and ovary bags harvested according to the European Union guidelines (husbandry authorizations #C75–05–31 and #D75–05–31; project authorizations #05137.02; and Apafis #28867–2020121814485893). Fragments of ovary bags were also purchased from the “Centre de Ressources Biologiques Xenopes” (now TEFOR, Paris Saclay, France) and from the European Xenopus Resource Center (EXRC, Portsmouth, UK). Xenopus laevis oocytes were harvested and prepared as previously described in ref[82].
Expression of recombinant NMDA receptors was obtained by oocyte nuclear coinjection of 37 nL of a mixture of cDNAs (at 30 ng/μL) coding for GluN1–1a and various GluN2 subunits (ratio 1:1). The protocol in ref[43] was followed for the expression of GluN1/GluN2A/GluN2B triheteromers. The oocytes were transferred in 96-well plates filled with Barth solution (in mM: 88 NaCl, 1 KCl, 0.33 Ca(NO3)2, 0.41 CaCl2, 0.82 MgSO4, 2.4 NaHCO3, and 7.5 HEPES, pH adjusted to 7.3 with NaOH), supplemented with gentamicin ([…]) and 50 μM APV, a selective NMDA receptor antagonist. Plates were then stored at 18 °C for 24 h for GluN1/GluN2A expression and for 48––72 h for the expression of GluN1/Glu2B, GluN1/GluN2A/GluN2B, and mutants.
TEVC recordings were performed 1–3 days following injection. TEVC recordings were performed using an Oocyte Clamp amplifier OC-725 (Warner Instruments) and computer-controlled via a 1440A Digidata (Molecular Devices). Currents were sampled at 100 Hz and low-pass-filtered at 20 Hz using an 8-pole Bessel filter (900 Series, Frequency Devices Inc.).

[1] = OptoNAM-3 dark PSS (trans) + 0.2 µM ifenprodil
[2] = OptoNAM-3 dark PSS (trans), no ifenprodil
[3] = preilluminated in solution, Xenopus oocytes

T1 sequence (Q01097 27-1482, other chains not shown): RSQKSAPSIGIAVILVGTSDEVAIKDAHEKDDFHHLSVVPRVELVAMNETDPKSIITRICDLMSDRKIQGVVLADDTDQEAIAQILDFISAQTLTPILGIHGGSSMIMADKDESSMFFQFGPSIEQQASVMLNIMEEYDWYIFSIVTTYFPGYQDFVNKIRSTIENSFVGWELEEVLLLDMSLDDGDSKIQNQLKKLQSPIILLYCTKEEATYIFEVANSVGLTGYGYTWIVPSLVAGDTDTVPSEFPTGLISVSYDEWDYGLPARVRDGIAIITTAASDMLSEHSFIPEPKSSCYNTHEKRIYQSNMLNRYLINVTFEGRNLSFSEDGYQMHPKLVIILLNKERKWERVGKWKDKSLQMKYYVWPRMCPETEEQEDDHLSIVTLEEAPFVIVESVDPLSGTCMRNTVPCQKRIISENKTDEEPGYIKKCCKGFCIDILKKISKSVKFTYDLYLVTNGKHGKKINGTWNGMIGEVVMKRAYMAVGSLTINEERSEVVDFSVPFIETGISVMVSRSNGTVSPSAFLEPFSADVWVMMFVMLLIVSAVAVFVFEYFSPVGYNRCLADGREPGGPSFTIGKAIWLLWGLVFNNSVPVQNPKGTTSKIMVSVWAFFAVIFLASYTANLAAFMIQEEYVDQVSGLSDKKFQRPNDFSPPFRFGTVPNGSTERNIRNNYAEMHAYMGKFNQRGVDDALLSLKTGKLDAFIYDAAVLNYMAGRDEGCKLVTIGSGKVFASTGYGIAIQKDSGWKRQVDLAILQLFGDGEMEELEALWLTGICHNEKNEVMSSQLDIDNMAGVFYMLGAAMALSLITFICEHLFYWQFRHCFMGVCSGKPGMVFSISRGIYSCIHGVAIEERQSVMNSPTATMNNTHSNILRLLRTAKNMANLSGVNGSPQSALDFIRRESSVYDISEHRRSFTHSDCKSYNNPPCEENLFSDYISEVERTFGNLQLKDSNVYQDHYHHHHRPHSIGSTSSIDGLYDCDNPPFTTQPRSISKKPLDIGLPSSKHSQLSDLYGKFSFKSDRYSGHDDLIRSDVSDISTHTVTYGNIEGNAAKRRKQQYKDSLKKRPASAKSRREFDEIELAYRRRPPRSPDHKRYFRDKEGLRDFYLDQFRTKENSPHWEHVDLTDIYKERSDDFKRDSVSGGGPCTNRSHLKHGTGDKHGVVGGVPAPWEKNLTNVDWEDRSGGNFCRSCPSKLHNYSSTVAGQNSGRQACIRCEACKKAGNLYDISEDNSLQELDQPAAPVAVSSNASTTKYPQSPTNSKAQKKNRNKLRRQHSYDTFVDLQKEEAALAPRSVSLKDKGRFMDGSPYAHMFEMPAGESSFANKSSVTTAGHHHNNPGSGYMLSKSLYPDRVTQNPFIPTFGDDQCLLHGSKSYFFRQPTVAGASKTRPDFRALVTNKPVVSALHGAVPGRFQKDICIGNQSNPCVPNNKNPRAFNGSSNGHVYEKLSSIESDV

c1ccc(/N=N/c2ccc(CCNc3ccncc3)cc2)cc1 [OptoNAM-3, (E)-N-(4-(Phenyldiazenyl)phenethyl)pyridin-4-amine]
Relative current for theoretical DRC 9% trans ([OptoNAM-3] 1 µM): 0.775 | Relative current for theoretical DRC 9% trans ([OptoNAM-3] 2 µM): 0.656 | Relative current for theoretical DRC 9% trans ([OptoNAM-3] 3 µM): 0.570 | Relative current for theoretical DRC 9% trans ([OptoNAM-3] 5 µM): 0.452 | Relative current for theoretical DRC 18% trans ([OptoNAM-3] 0.025 µM): 0.980 | Relative current for theoretical DRC 18% trans ([OptoNAM-3] 0.05 µM): 0.965 | Relative current for theoretical DRC 18% trans ([OptoNAM-3] 0.125 µM): 0.924 | Relative current for theoretical DRC 18% trans ([OptoNAM-3] 0.22 µM): 0.880 | Relative current for theoretical DRC 18% trans ([OptoNAM-3] 0.3 µM): 0.848 | Relative current for theoretical DRC 18% trans ([OptoNAM-3] 0.5 µM): 0.775 | Relative current for theoretical DRC 18% trans ([OptoNAM-3] 1 µM): 0.656 | Relative current for theoretical DRC 18% trans ([OptoNAM-3] 2 µM): 0.500 | Relative current for theoretical DRC 18% trans ([OptoNAM-3] 3 µM): 0.416 | Relative current for theoretical DRC 18% trans ([OptoNAM-3] 5 µM): 0.307 | Relative current for theoretical DRC 18% trans ([OptoNAM-3] 30 µM): 0.073 | remaining activity at 0.03 µM [1]: 93.3% | remaining activity at 0.1 µM [1]: 89% | remaining activity at 0.3 µM (OptoNAM-3 dark PSS (trans) + 0.2 µM ifenprodil, [OptoNAM-3] 0.3 µM): 77.3% | remaining activity at 2 µM (OptoNAM-3 dark PSS (trans) + 0.2 µM ifenprodil, [OptoNAM-3] 2 µM): 32.6% | remaining activity at 0.03 µM [2]: 95.1% | remaining activity at 0.1 µM [2]: 84.9% | remaining activity at 0.3 µM (OptoNAM-3 dark PSS (trans), no ifenprodil, [OptoNAM-3] 0.3 µM): 63.5% | remaining activity at 2 µM (OptoNAM-3 dark PSS (trans), no ifenprodil, [OptoNAM-3] 2 µM): 14.7% | Mean Relative current (IOpto/I0) ([OptoNAM-3] 0.025 µM, 365 nm PSS): 0.933 | Mean Relative current (IOpto/I0) ([OptoNAM-3] 0.025 µM, dark PSS (trans)): 0.887 | Mean Relative current (IOpto/I0) ([OptoNAM-3] 0.050 µM, 365 nm PSS): 0.910 | Mean Relative current (IOpto/I0) ([OptoNAM-3] 0.050 µM, dark PSS (trans)): 0.827 | Mean Relative current (IOpto/I0) ([OptoNAM-3] 0.125 µM, 350 nm PSS): 0.907 | Mean Relative current (IOpto/I0) ([OptoNAM-3] 0.125 µM, 365 nm PSS): 0.912 | Mean Relative current (IOpto/I0) ([OptoNAM-3] 0.125 µM, dark PSS (trans)): 0.758 | Mean Relative current (IOpto/I0) ([OptoNAM-3] 0.220 µM, 365 nm PSS): 0.880 | Mean Relative current (IOpto/I0) ([OptoNAM-3] 0.220 µM, dark PSS (trans)): 0.592 | Mean Relative current (IOpto/I0) ([OptoNAM-3] 0.300 µM, 350 nm PSS): 0.918 | Mean Relative current (IOpto/I0) ([OptoNAM-3] 0.300 µM, 365 nm PSS): 0.841 | Mean Relative current (IOpto/I0) ([OptoNAM-3] 0.300 µM, dark PSS (trans)): 0.581 | Mean Relative current (IOpto/I0) ([OptoNAM-3] 0.470 µM, 350 nm PSS): 0.900 | Mean Relative current (IOpto/I0) ([OptoNAM-3] 0.500 µM, 365 nm PSS): 0.666 | Mean Relative current (IOpto/I0) ([OptoNAM-3] 1.000 µM, 350 nm PSS): 0.860 | Mean Relative current (IOpto/I0) ([OptoNAM-3] 1.000 µM, 365 nm PSS): 0.644 | Mean Relative current (IOpto/I0) ([OptoNAM-3] 1.000 µM, dark PSS (trans)): 0.307 | Mean Relative current (IOpto/I0) ([OptoNAM-3] 2.000 µM, 350 nm PSS): 0.656 | Mean Relative current (IOpto/I0) ([OptoNAM-3] 2.000 µM, 365 nm PSS): 0.433 | Mean Relative current (IOpto/I0) ([OptoNAM-3] 2.000 µM, dark PSS (trans)): 0.141 | Mean Relative current (IOpto/I0) ([OptoNAM-3] 3.000 µM, 350 nm PSS): 0.613 | Mean Relative current (IOpto/I0) ([OptoNAM-3] 3.000 µM, 365 nm PSS): 0.375 | Mean Relative current (IOpto/I0) ([OptoNAM-3] 3.000 µM, dark PSS (trans)): 0.098 | Mean Relative current (IOpto/I0) ([OptoNAM-3] 5.000 µM, 350 nm PSS): 0.446 | Mean Relative current (IOpto/I0) ([OptoNAM-3] 5.000 µM, 365 nm PSS): 0.267 | Mean Relative current (IOpto/I0) ([OptoNAM-3] 5.000 µM, dark PSS (trans)): 0.092 | Mean Relative current (IOpto/I0) ([OptoNAM-3] 30.000 µM, 365 nm PSS): 0.034 | Mean Relative current (IOpto/I0) ([OptoNAM-3] 30.000 µM, dark PSS (trans)): 0.00423 | IC50 (control curve of the ifenprodil competition experiment, read-out: IC50 in the dark in absence of ifenprodil): 460 ± 60 nM | increase of IC50 by 0.2 µM ifenprodil (dark): ~ 2 fold | IC50 (dark PSS (trans), 100 µM glutamate + glycine, Xenopus oocytes, read-out: IC50 on GluN1/GluN2B receptors in the dark): 380 ± 30 nM | IC50 (dark PSS (trans), Xenopus oocytes, read-out: IC50 on GluN1/GluN2B receptors in the dark): 380 nM | UV/dark IC50 ratio (350 nm PSS vs dark) [3]: 11.5 fold | UV/dark IC50 ratio (365 nm PSS vs dark) [3]: 4.5 fold | IC50 (range over HEK cells and Xenopus oocytes, read-out: IC50 in the dark (trans isomer)): 150 to 380 nM | activity of the cis isomer on GluN1/GluN2B NMDARs (theoretical dose-response curve of a pure cis population calculated from 365 and 350 nm PSS): no inhibitory activity
